target: bovine cardiac myosin (Bos taurus, UniProt Q9BE39); assay: Myosin inhibition assay (PK/LDH-coupled ATPase, bovine cardiac myofibrils); assay type: biochemical; details: calcium concentration giving 50% activation, pH 6.8, read-out: bcMF pCa_6 IC50
Experimental: Small molecule agents were assessed for their ability to inhibit the enzymatic activity of bovine cardiac myosin using a biochemical assay that couples the release of ADP (adenosine diphosphate) from cardiac myosin to an enzymatic coupling system consisting of pyruvate kinase and lactate dehydrogenase (PK/LDH) and monitoring the absorbance decrease of NADH (at 340 nm) as a function of time. PK converts ADP to ATP (adenosine triphosphate) by converting PEP (phosphoenolpyruvate) to pyruvate. Pyruvate is then converted to lactate by LDH by converting NADH (nicotinamide adenine dinucleotide) to NAD (oxidized nicotinamide adenine dinucleotide). […] Prior to testing small molecule agents, the bovine myofibrils were assessed for their calcium responsiveness and the calcium concentration that achieves a 50% activation of the myofibril system was chosen as the final condition for assessing the inhibitory activity of the small molecule agents. All enzymatic activity was measured in a buffered solution containing 12 mM PIPES (piperazine-N,N′-bis(2-ethanesulfonic acid), 2 mM magnesium chloride at pH 6.8 (PM12 buffer). Final assay conditions were 1 mg/mL of bovine cardiac myofibrils, 0.4 mM PK/LDH, 50 uM ATP, 0.1 mg/mL BSA (bovine serum albumin), 10 ppm antifoam, 2 mM BME, 0.5 mM NADH, 1.5 mM PEP at the desired free calcium concentration required to achieve 50% activation of the myofibrils.
A dilution series of compound was created in DMSO such that the final desired concentration of compound would be achieved in a volume of 30 μL with a fixed DMSO concentration of 3.3% (v/v). Typically 1 μL of the dilution series were added to 384 well plate to achieve an 10 point dose response. Following the addition of 14 μL of a solution containing bovine cardiac myofibrils, PK/LDH and a solution of calcium (that achieved 50% activation), the enzymatic reaction was started with the addition of 15 μL of a solution containing ATP, PEP and NADH. The reaction progress was followed in a PerkinElmer Envision plate reader at ambient temperature using clear bottom plates. The plate reader was configured to read absorbance at 340 nm in kinetics mode for 15 minutes. Data were recorded as the slope of the absorbance response to time. The slopes of the absorbance response as a function of time were normalized to slopes on the plate containing DMSO. This normalized rate was then plotted as a function of small molecule concentration and the data was fitted to a four-parameter fit using EXCEL XLfit. The IC50 is the concentration at which fifty percent of the total response is inhibited.

bovine cardiac myosin, sequence (Q9BE39 whole entry): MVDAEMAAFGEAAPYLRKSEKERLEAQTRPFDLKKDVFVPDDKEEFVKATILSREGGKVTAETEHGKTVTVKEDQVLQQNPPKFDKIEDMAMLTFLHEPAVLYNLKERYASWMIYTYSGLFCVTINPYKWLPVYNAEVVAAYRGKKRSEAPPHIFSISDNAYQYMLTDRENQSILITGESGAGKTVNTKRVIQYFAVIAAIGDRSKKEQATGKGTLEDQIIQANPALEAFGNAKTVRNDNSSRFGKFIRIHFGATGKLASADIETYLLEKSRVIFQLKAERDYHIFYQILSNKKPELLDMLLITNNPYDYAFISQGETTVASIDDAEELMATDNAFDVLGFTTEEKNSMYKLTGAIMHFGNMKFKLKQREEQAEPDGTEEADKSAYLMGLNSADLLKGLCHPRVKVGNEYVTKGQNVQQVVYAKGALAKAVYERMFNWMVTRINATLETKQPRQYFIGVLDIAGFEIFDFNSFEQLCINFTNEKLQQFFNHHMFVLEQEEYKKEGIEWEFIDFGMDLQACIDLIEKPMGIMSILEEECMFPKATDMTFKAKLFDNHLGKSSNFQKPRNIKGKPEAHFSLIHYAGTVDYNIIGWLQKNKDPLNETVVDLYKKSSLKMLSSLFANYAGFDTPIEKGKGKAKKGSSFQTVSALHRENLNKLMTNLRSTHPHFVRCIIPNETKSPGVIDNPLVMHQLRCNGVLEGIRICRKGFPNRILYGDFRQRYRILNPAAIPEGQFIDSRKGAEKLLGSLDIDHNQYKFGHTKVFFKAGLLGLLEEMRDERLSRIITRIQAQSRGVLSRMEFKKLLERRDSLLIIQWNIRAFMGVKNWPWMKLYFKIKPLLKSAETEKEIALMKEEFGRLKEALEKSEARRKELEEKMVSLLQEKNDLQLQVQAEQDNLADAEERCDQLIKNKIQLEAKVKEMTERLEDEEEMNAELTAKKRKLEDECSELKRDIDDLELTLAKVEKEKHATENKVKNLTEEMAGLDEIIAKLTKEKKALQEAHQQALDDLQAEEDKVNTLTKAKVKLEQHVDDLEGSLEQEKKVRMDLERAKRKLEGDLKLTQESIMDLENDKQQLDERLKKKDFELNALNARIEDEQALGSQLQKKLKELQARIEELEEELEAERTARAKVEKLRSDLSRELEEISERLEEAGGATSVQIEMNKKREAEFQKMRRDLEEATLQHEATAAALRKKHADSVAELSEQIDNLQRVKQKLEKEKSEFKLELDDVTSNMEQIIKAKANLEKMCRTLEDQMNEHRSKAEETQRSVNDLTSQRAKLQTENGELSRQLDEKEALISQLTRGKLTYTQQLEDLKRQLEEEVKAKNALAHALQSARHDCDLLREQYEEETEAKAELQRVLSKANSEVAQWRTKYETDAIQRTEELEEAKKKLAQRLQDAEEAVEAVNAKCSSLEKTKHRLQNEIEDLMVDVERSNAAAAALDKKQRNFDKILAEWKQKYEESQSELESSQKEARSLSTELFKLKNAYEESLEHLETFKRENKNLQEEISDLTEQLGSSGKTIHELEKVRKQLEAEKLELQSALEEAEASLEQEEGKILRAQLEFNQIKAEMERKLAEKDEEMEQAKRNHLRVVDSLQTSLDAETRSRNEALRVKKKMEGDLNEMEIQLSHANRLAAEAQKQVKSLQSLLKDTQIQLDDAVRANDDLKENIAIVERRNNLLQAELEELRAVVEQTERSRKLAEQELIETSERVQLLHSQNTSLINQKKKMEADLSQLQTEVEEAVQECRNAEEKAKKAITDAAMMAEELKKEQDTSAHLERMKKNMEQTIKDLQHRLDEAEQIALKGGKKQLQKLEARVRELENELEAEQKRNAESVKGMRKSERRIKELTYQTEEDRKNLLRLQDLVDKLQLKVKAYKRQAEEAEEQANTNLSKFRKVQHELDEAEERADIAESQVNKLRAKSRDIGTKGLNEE
bovine cardiac myosin, sequence (P85100 whole entry partner): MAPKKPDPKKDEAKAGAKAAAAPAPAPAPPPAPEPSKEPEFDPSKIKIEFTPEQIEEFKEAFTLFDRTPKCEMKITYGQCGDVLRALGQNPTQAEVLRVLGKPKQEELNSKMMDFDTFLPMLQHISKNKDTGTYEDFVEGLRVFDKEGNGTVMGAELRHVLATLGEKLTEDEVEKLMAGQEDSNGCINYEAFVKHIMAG
bovine cardiac myosin, sequence (Q3SZE5 whole entry partner): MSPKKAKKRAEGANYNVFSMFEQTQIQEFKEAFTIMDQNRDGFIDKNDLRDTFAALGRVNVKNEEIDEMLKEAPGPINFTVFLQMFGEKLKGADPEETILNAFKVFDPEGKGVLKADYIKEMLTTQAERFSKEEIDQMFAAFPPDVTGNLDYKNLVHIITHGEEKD

IC50 [µM] | Compound
< 1 | C[C@]1(c2cc(F)ccc2F)CCc2c([nH]c(=O)n(C3CC3)c2=O)N1 [Compound 138]
> 15 | CC(C)n1c(=O)[nH]c2c(c1=O)C[C@@H](C)[C@H](c1ccccc1)N2 [Compound 91]
> 15 | CCn1c(=O)[nH]c2c(c1=O)CC[C@@](c1ccccc1)(C(C)C)N2 [Compound 132]
1 to 15 | CCn1c(=O)[nH]c2c(c1=O)CC[C@](c1ccccc1)(C1CCOCC1)N2 [Compound 143]
1 to 15 | COC(=O)N1CCC(n2c(=O)[nH]c3c(c2=O)CC[C@H](c2ccccc2)N3)CC1 [Compound 110]
> 15 | CCn1c(=O)[nH]c2c(c1=O)CCC[C@H](c1ccc(F)c(F)c1)N2 [Compound 99]
1 to 15 | O=c1[nH]c2c(c(=O)n1C1CC1)CC[C@H](c1ccccc1)N2 [Compound 90]
1 to 15 | CCC[C@]1(c2ccccc2)CCc2c([nH]c(=O)n(CC)c2=O)N1 [Compound 133]
1 to 15 | CCn1c(=O)[nH]c2c(c1=O)CC[C@](C)(c1cc(F)ccc1F)N2 [Compound 119]
< 1 | C[C@]1(c2cccc(F)c2)CCc2c([nH]c(=O)n(-c3ccccc3)c2=O)N1 [Compound 127]
> 15 | CCn1c(=O)[nH]c2c(c1=O)C[C@](C)(c1ccccc1)N2 [Compound 144]
< 1 | CCn1c(=O)[nH]c2c(c1=O)CC[C@@](c1ccccc1)(C1CCOCC1)N2 [Compound 142]
1 to 15 | CCn1c(=O)[nH]c2c(c1=O)CC[C@](CC)(c1ccccc1)N2 [Compound 123]
1 to 15 | CC1(n2c(=O)[nH]c3c(c2=O)CC[C@H](c2cc(F)ccc2F)N3)CC1 [Compound 120]
1 to 15 | O=c1[nH]c2c(c(=O)n1-c1ccccc1)CC[C@H](c1ccccc1F)N2 [Compound 108]
< 1 | C[C@]1(c2cccc(F)c2)CCc2c([nH]c(=O)n(C3CCOCC3)c2=O)N1 [Compound 128]

IC50 [µM] | Compound
1 to 15 | Cc1ccccc1[C@H]1CCc2c([nH]c(=O)n(C(C)C)c2=O)N1 [Compound 104]
< 1 | CC(C)n1c(=O)[nH]c2c(c1=O)CC[C@](C)(c1cc(F)ccc1F)N2 [Compound 115]
1 to 15 | Cn1c(=O)[nH]c2c(c1=O)CC[C@](C)(c1cccc(F)c1)N2 [Compound 126, (R)-7-(3-Fluorophenyl)-3,7-dimethyl-5,6,7,8-tetrahydropyrido[2,3-d]pyrimidine-2,4(1H,3H)-dione]
> 15 | Cc1ccccc1[C@@H]1CCc2c([nH]c(=O)n(C(C)C)c2=O)N1 [Compound 105]
1 to 15 | COC(=O)N1CCC(n2c(=O)[nH]c3c(c2=O)CC[C@](C)(c2ccc(F)c(F)c2)N3)CC1 [Compound 125]
> 15 | CC(C)n1c(=O)[nH]c2c(c1=O)CC(F)(F)[C@@H](c1ccccc1)N2 [Compound 117, (R)-6,6-Difluoro-3-isopropyl-7-phenyl-5,6,7,8-tetrahydropyrido[2,3-d]pyrimidine-2,4(1H,3H)-dione]
1 to 15 | COC(=O)N1CCC([C@H]2CCc3c([nH]c(=O)n(C(C)C)c3=O)N2)CC1 [Compound 141]
> 15 | CC(C)n1c(=O)[nH]c2c(c1=O)CC[C@@](C)(c1ccccc1)N2 [Compound 107]
1 to 15 | CCCn1c(=O)[nH]c2c(c1=O)CC[C@H](c1ccc(F)c(F)c1)N2 [Compound 97]
< 1 | C[C@]1(c2cc(F)ccc2F)CCc2c([nH]c(=O)n(-c3cc(F)cc(F)c3)c2=O)N1 [Compound 135]
1 to 15 | Cc1cccc([C@H]2CCc3c([nH]c(=O)n(C4(C)CC4)c3=O)N2)c1 [Compound 124]
1 to 15 | Cc1ccccc1[C@H]1CCc2c([nH]c(=O)n(C3(C)CC3)c2=O)N1 [Compound 122]
< 1 | C[C@]1(c2cccc(F)c2)CCc2c([nH]c(=O)n(CC(F)F)c2=O)N1 [Compound 136]
1 to 15 | O=c1[nH]c2c(c(=O)n1C1CCC1)CC[C@H](c1ccc(F)c(F)c1)N2 [Compound 96]
1 to 15 | [2H]C1([2H])C[C@H](c2ccc(F)c(F)c2)Nc2[nH]c(=O)n(C(C)C)c(=O)c21 [Compound 101, (7R)-7-(3,4-Difluorophenyl)-3-isopropyl-5,6,7,8-tetrahydropyrido[2,3-d]pyrimidine-2,4(1H,3H)-dione-5,5-d2]
> 15 | CCn1c(=O)[nH]c2c(c1=O)CC[C@@H](c1ccc(F)c(F)c1)CN2 [Compound 98]

Second part, the compound before the results:

Compound | IC50 [µM]
COc1cccc(-n2c(=O)[nH]c3c(c2=O)CC[C@H](C2CCC(F)(F)CC2)N3)n1 [Compound 39] | 1 to 15
CC(C)n1c(=O)[nH]c2c(c1=O)CC[C@H](C1CC(F)(F)C1)N2 [Compound 41] | 1 to 15
O=c1[nH]c2c(c(=O)n1-c1cccc(F)n1)CC[C@H](C1CCC(F)(F)CC1)N2 [Compound 43] | < 1
CCn1c(=O)[nH]c2c(c1=O)CC[C@H](c1ccc(Cl)cc1)N2 [Compound 15] | 1 to 15
CC(C)Cn1c(=O)[nH]c2c(c1=O)CC[C@H](c1ccc(F)c(F)c1)N2 [Compound 80] | 1 to 15
O=c1[nH]c2c(c(=O)n1CC(F)(F)F)CC[C@H](c1ccccc1)N2 [Compound 63] | 1 to 15
O=c1[nH]c2c(c(=O)n1-c1cc(F)cc(F)c1)C[C@H](c1ccccc1)N2 [Compound 71] | > 15
O=c1[nH]c2c(c(=O)n1-c1ccccn1)CC[C@H](c1ccccc1)N2 [Compound 35] | 1 to 15
O=c1[nH]c2c(c(=O)n1CC(F)F)CC[C@H](c1ccc(F)cc1)N2 [Compound 73] | 1 to 15
O=c1[nH]c2c(c(=O)n1-c1cc(F)cc(F)c1)CC[C@H](CC1CC(F)(F)C1)N2 [Compound 51] | 1 to 15
O=c1[nH]c2c(c(=O)n1-c1cc(F)cc(F)c1)CC[C@H](C1CCCC1)N2 [Compound 40] | 1 to 15
Cn1ccc(-n2c(=O)[nH]c3c(c2=O)CC[C@H](C2CCC(F)(F)CC2)N3)n1 [Compound 36] | < 1
O=c1[nH]c2c(c(=O)n1CC(F)(F)F)CC[C@@H](c1ccccc1)N2 [Compound 86] | > 15
CC(C)n1c(=O)[nH]c2c(c1=O)C[C@H](c1ccccc1)N2 (single isomer, unassigned) [Compound 7] | 1 to 15
O=c1[nH]c2c(c(=O)n1-c1cc(F)cc(F)c1)CC[C@H](c1cccc(F)c1)N2 [Compound 60] | 1 to 15
O=c1[nH]c2c(c(=O)n1-c1cccc(F)n1)CC[C@H](c1ccccc1)N2 [Compound 34] | 1 to 15
O=c1[nH]c2c(c(=O)n1-c1ccccc1)CC[C@H](c1cccc(F)c1)N2 [Compound 49] | 1 to 15

Compound | IC50 [µM]
CC1(n2c(=O)[nH]c3c(c2=O)CC[C@H](c2ccccc2)N3)CC1 [Compound 56] | 1 to 15
O=c1[nH]c2c(c(=O)n1CC1CC1)CC[C@H](C1CCC(F)(F)CC1)N2 [Compound 19] | 1 to 15
CCn1c(=O)[nH]c2c(c1=O)CC[C@H](c1ccc(F)c(Cl)c1)N2 [Compound 13] | 1 to 15
CC(C)n1c(=O)[nH]c2c(c1=O)CC[C@H](c1cc(F)cc(F)c1)N2 [Compound 77] | 1 to 15
O=c1[nH]c2c(c(=O)n1C1CCC1)CC[C@H](c1ccccc1)N2 [Compound 28] | 1 to 15
CC(C)n1c(=O)[nH]c2c(c1=O)CC[C@H](c1ccc(=O)[nH]c1)N2 [Compound 54] | > 15
CCn1c(=O)[nH]c2c(c1=O)CC[C@H](c1ccc(F)cc1F)N2 [Compound 16] | 1 to 15
CC(C)n1c(=O)[nH]c2c(c1=O)C[C@@H](c1ccccc1)N2 (single isomer, unassigned) [Compound 8] | > 15
O=c1[nH]c2c(c(=O)n1-c1cc(F)cc(F)c1)CC[C@H](c1ccccc1)N2 [Compound 65] | 1 to 15
CCn1c(=O)[nH]c2c(c1=O)CC[C@H](c1cccc(F)c1F)N2 [Compound 58] | > 15
O=c1[nH]c2c(c(=O)n1-c1ccccc1)CC[C@H](c1ccc(F)cc1)N2 [Compound 3, (R)-7-(4-Fluorophenyl)-3-phenyl-5,6,7,8-tetrahydropyrido[2,3-d]pyrimidine-2,4(1H,3H)-dione] | 1 to 15
CC(C)n1c(=O)[nH]c2c(c1=O)C[C@H](Cc1ccccc1)N2 [Compound 87] | > 15
O=c1[nH]c2c(c(=O)n1-c1ccc(F)cn1)CC[C@H](C1CCC(F)(F)CC1)N2 [Compound 33] | < 1
CC(C)n1c(=O)[nH]c2c(c1=O)CC[C@H](CC1CC(F)(F)C1)N2 [Compound 50] | 1 to 15
CC(C)n1c(=O)[nH]c2c(c1=O)CC[C@H](C1CCOCC1)N2 [Compound 27] | 1 to 15
CC(C)n1c(=O)[nH]c2c(c1=O)CC[C@H](CC1CCOCC1)N2 [Compound 62] | > 15

Reference: patent US9663516B2, “Bicyclic-pyrimidinedione compounds” (MyoKardia, Inc., priority 2014, dated 2017)
